According to US8222246B2, “Substituted isoxazoles” (Hoffmann-La Roche Inc., priority 2009, dated 2012):

These compounds were tested against T1, GABA A α5 (α5β3γ2) (Homo sapiens, UniProt P18507+P31644) (assay: [3H]flumazenil competition binding assay, human GABA A α5 receptors in HEK293 cells). Conditions: competition for [3H]flumazenil (0.5 nM); HEK293 cells expressing human (transiently transfected) receptors; means of two determinations; read-out: hKi GABA A α5.
T1 construct: expressed in transfected cells; host or cells: HEK293 (transiently transfected), membranes
Procedure: Membrane Preparation and Binding Assay
The affinity of compounds at GABA A receptor subtypes was measured by competition for [3H]flumazenil (85 Ci/mmol; Roche) binding to HEK293 cells expressing rat (stably transfected) or human (transiently transfected) receptors of composition α1β3γ2, α2β3γ2, α3β3γ2 and α5β3γ2.
Cell pellets were suspended in Krebs-tris buffer (4.8 mM KCl, 1.2 mM CaCl2, 1.2 mM MgCl2, 120 mM NaCl, 15 mM Tris; pH 7.5; binding assay buffer), homogenized by polytron for ca. 20 sec on ice and centrifuged for 60 min at 4° C. (50000 g; Sorvall, rotor: SM24=20000 rpm). The cell pellets were resuspended in Krebs-tris buffer and homogenized by polytron for ca. 15 sec on ice. Protein was measured (Bradford method, Bio-Rad) and aliquots of 1 mL were prepared and stored at −80° C.
Radioligand binding assays were carried out in a volume of […] (96-well plates) which contained […] of cell membranes, [3H]flumazenil at a concentration of 1 nM for α1, α2, α3 subunits and 0.5 nM for α5 subunits and the test compound in the range of […]. Nonspecific binding was defined by 10^−5 M diazepam and typically represented less than 5% of the total binding. Assays were incubated to equilibrium for 1 hour at 4° C. and harvested onto GF/C uni-filters (Packard) by filtration using a Packard harvester and washing with ice-cold wash buffer (50 mM Tris; pH 7.5). After drying, filter-retained radioactivity was detected by liquid scintillation counting. Ki values were calculated using Excel-Fit (Microsoft) and are the means of two determinations.
Representative test results, obtained by the above described assay measuring binding affinity to HEK293 cells expressing human (h) receptors, are shown in table 1 below.

| Structure (SMILES) | Ki |
| --- | --- |
| O=C(NCC(F)(F)C(F)(F)F)c1ccc(OCc2c(-c3ccc(F)cc3)noc2CO)nc1 [Example 13, 6-[3-(4-Fluoro-phenyl)-5-hydroxymethyl-isoxazol-4-ylmethoxy]-N-(2,2,3,3,3-pentafluoro-propyl)-nicotinamide] | 3.4 nM |
| CCCCc1noc(CO)c1COc1ccc(C(=O)N2CCC2)cn1 [Example 53, Azetidin-1-yl-[6-(3-Butyl-5-hydroxymethyl-isoxazol-4-ylmethoxy)-pyridin-3-yl]-methanone] | 51.3 nM |
| O=C(c1ccc(OCc2c(-c3ccc(Cl)cc3)noc2CO)nc1)N1CCS(=O)(=O)CC1 [Example 18, {6-[3-(4-Chloro-phenyl)-5-hydroxymethyl-isoxazol-4-ylmethoxy]-pyridin-3-yl}-(1,1-dioxo-1-thiomorpholin-4-yl)-methanone] | 3.5 nM |
| O=C(c1ccc(OCc2c(-c3ccccn3)noc2CO)nc1)N1CCS(=O)(=O)CC1 [Example 43, (1,1-Dioxo-1,6-thiomorpholin-4-yl)-[6-(5-hydroxymethyl-3-pyridin-2-yl-isoxazol-4-ylmethoxy)-pyridin-3-yl]-methanone] | 10.8 nM |
| COCCNC(=O)c1ccc(OCc2c(-c3ccc(F)cc3)noc2CO)nc1 [Example 9, 6-[3-(4-Fluoro-phenyl)-5-hydroxymethyl-isoxazol-4-ylmethoxy]-N-(2-methoxy-ethyl)-nicotinamide] | 4.1 nM |
| CCCCc1noc(CO)c1COc1ccc(C(=O)NC2(C)COC2)cn1 [Example 50, 6-(3-Butyl-5-hydroxymethyl-isoxazol-4-ylmethoxy)-N-(3-methyloxetan-3-yl)-nicotinamide] | 8.7 nM |

Now those with a lower Ki, led by results:

| Ki | Structure (SMILES) |
| --- | --- |
| 2.2 nM | CC(C)NC(=O)c1ccc(OCc2c(-c3ccccc3)noc2CO)nc1 [Example 1, 6-(5-Hydroxymethyl-3-phenyl-isoxazol-4-ylmethoxy)-N-isopropyl-nicotinamide] |
| 2 nM | O=C(NC1CCOCC1)c1ccc(OCc2c(-c3ccc(F)c(F)c3)noc2CO)nc1 [Example 29, 6-[3-(3,4-Difluoro-phenyl)-5-hydroxymethyl-isoxazol-4-ylmethoxy]-N-(tetrahydro-pyran-4-yl)-nicotinamide] |
| 1.7 nM | O=C(NN1CCOCC1)c1ccc(OCc2c(-c3ccccn3)noc2CO)nc1 [Example 48, 6-(5-Hydroxymethyl-3-pyridin-2-yl-isoxazol-4-ylmethoxy)-N-morpholin-4-yl-nicotinamide] |
| 1.6 nM | O=C(N[C@H]1CCC[C@@H]1O)c1ccc(OCc2c(-c3ccc(F)cc3)noc2CO)nc1 (racemic) [Example 10, 6-[3-(4-Fluoro-phenyl)-5-hydroxymethyl-isoxazol-4-ylmethoxy]-N-((1R,2R)-2-hydroxy-cyclopentyl)-nicotinamide or 6-[3-(4-Fluoro-phenyl)-5-hydroxymethyl-isoxazol-4-ylmethoxy]-N-((1S,2S)-2-hydroxy-cyclopentyl)-nicotinamide] |
| 1 nM | O=C(NC1CC1)c1ccc(OCc2c(-c3ccc(Cl)cc3)noc2CO)nc1 [Example 20, 6-[3-(4-Chloro-phenyl)-5-hydroxymethyl-isoxazol-4-ylmethoxy]-N-cyclopropyl-nicotinamide] |
